Measured values from paper PMC12086361, “Downstream Signaling of Muscarinic M4 Receptors Is Regulated by Receptor Density and Cellular Environment” (Pharmacology Research & Perspectives, 2025).

Each compound was assayed against T1, human M4 receptor (hM4) (Homo sapiens, UniProt P08173) (assay: cADDis cAMP sensor FLIPR assay, HEK293 hM4, decrease of forskolin-stimulated cAMP). Details: read-out: HEK-293, hM4, cAMP (48 h) / Gi pEC50 /slope (converted).
T1 construct: gene CHRM4
T1 sequence (P08173 1-479): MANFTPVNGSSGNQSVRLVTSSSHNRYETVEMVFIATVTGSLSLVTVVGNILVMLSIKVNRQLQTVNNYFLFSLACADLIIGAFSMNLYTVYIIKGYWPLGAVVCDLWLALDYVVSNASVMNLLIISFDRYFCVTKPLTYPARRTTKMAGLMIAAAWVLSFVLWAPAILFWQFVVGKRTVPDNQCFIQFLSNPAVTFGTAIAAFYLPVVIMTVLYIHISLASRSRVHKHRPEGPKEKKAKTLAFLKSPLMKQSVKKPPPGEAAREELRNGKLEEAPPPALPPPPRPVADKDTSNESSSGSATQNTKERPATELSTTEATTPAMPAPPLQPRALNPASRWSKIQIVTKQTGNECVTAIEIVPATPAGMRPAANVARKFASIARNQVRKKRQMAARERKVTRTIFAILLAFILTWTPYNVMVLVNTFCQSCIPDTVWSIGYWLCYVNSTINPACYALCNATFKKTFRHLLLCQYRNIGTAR
Type: cell-based
Text: cADDis cAMP sensor FLIPR assay, HEK293 hM4, decrease of forskolin-stimulated cAMP on human M4 receptor (hM4)
`CCOC(=O)N1CC2(CCC(N3CCC(N(CC)C(C)=O)CC3)C2)C1` (stereo not drawn) [compound 6, compound-6] was tested, and the EC50 was 407 pM. `COC(=O)N1CCC(N2CCC(n3c(=O)n(C)c4ccccc43)CC2)CC1` [compound 110, compound-110] was tested, and the EC50 was 646 pM. Compound `C[N+](C)(C)CC#CCN1CCCC1=O` [oxotremorine-M] has an EC50 of 1200 pM.
